pIC50: −log10 of the molar value. Converted amounts (≈) assume the structure as drawn. Read-outs that look alike come from different tables or passages of the source.
Assays:
K. pneumoniae = assay: Bacterial susceptibility testing, MIC by broth microdilution (CLSI); format: cell-based; details: Klebsiella pneumoniae, read-out: K. pneumoniae MIC
Protocol: (§1) Minimal inhibitory concentrations (MIC) were determined by the broth microdilution method in accordance with the Clinical and Laboratory Standards Institute (CLSI) guidelines. In brief, organism suspensions were adjusted to a 0.5 McFarland standard to yield a final inoculum between 3×10^5 and 7×10^5 colony-forming units (CFU)/mL. Drug dilutions and inocula were made in sterile, cation adjusted Mueller-Hinton Broth (Beckton Dickinson). An inoculum volume of 100 μL was added to wells containing 100 μL of broth with 2-fold serial dilutions of drug. All inoculated microdilution trays were incubated in ambient air at 35° C. for 18-24 h. Following incubation, the lowest concentration of the drug that prevented visible growth (OD600 nm<0.05) was recorded as the MIC. Performance of the assay was monitored by the use of laboratory quality-control strains and levofloxacin, a compound with a defined MIC spectrum, in accordance with CLSI guidelines.

E. coli = assay: as above; format: cell-based; details: Escherichia coli, read-out: E. coli MIC
Protocol: as §1

S. aureus = assay: as above; format: cell-based; details: Staphylococcus aureus, read-out: S. aureus MIC
Protocol: as §1

E. coli LpxC = E. coli LpxC (Escherichia coli, UniProt P0A725); assay: LpxC Binding Assay (Rapid Fire MS assay); format: biochemical
E. coli LpxC, sequence (P0A725 whole entry): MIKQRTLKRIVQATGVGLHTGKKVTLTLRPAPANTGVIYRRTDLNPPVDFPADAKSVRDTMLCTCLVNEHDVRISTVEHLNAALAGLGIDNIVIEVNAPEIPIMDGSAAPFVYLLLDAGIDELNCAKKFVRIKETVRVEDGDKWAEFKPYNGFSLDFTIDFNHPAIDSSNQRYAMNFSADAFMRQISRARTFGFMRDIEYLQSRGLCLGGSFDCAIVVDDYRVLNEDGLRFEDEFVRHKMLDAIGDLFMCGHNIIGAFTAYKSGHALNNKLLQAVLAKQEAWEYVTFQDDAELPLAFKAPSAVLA

[1] = tested on: TLR-4 activity of A. baumannii culture supernatants; assay: TLR4 assay: TLR4 activity of A. baumannii culture supernatants in HEK-Blue-hTLR4 cells; format: cell-based; details: Acinetobacter baumannii, HEK-Blue hTLR4, read-out: % TLR-4 activity
Protocol: The TLR4 assay measures activity of diluted filter-sterilized A. baumannii culture supernatants. The assay was performed as described in Lin et al, Mbio, 2012. Briefly, A. baumannii was passaged to mid log-phase in the presence of Forge LpxC inhibitors. Culture supernatants were harvested, filter-sterilized and diluted 1:1000. TLR4 activity of the supernatants was tested using HEK-Blue-hTLR4 cells (Invivogen) that carry NF-kB and AP-1 driven SEAP (secreted embryonic alkaline phosphatase) reporter gene.
Exemplary TLR4 assay data (% TLR-4 activity) for compounds in embodiments of the disclosure.

[2] = broth microdilution, 35° C., 18-24 h

Molecule	MIC (K. pneumoniae; [2])	MIC (E. coli; [2])	MIC (S. aureus; [2])	pIC50 (E. coli LpxC)	activity at 4 µg/mL [1]	activity at 8 µg/mL [1]	activity at 16 µg/mL [1]	MIC (K. pneumoniae)	MIC (E. coli)	MIC (S. aureus)
O=C(NCC(F)F)C(Cc1ccc(C#Cc2ccc(CN3CCOCC3)cc2)cc1)c1nc[nH]c(=O)c1O (stereo not shown) [Compound 1, N-(2,2-difluoroethyl)-2-(5-hydroxy-6-oxo-1,6-dihydropyrimidin-4-yl)-3-(4-((4-(morpholinomethyl)phenyl)ethynyl)phenyl) propanamide]	1 to 8 µg/mL (≈ 1.91 to 15.3 µM)	< 1 µg/mL	> 32 µg/mL	> 8.00	< 20%	< 20%	< 20%	–	–	–
O=C(NCC(F)(F)F)C(Cc1ccc(C#Cc2ccc(CN3CCOCC3)cc2)cc1)c1nc[nH]c(=O)c1O (stereo not shown) [Compound 2, 2-(5-hydroxy-6-oxo-1,6-dihydropyrimidin-4-yl)-3-(4-((4-(morpholinomethyl)phenyl)ethynyl)phenyl)-N-(2,2,2-trifluoroethyl) propanamide]	1 to 8 µg/mL (≈ 1.85 to 14.8 µM)	< 1 µg/mL	> 32 µg/mL	7.30 to 8.00	< 20%	< 20%	< 20%	–	–	–
O=C(NCCF)C(Cc1ccc(C#Cc2ccc(CN3CCOCC3)cc2)cc1)c1nc[nH]c(=O)c1O (stereo not shown) [Compound 3, N-(2-fluoroethyl)-2-(5-hydroxy-6-oxo-1,6-dihydropyrimidin-4-yl)-3-(4-((4-(morpholinomethyl)phenyl)ethynyl)phenyl) propanamide]	1 to 8 µg/mL (≈ 1.98 to 15.9 µM)	< 1 µg/mL	> 32 µg/mL	7.30 to 8.00	50 to 80%	20 to 50%	20 to 50%	–	–	–
O=C(CF)NCC(Cc1ccc(C#Cc2ccc(CN3CCOCC3)cc2)cc1)c1nc[nH]c(=O)c1O (stereo not shown) [Compound 12, 2-fluoro-N-(2-(5-hydroxy-6-oxo-1,6-dihydropyrimidin-4-yl)-3-(4-((4-(morpholinomethyl)phenyl)ethynyl)phenyl)propyl) acetamide]	–	–	–	7.30 to 8.00	–	–	–	1 to 8 µg/mL (≈ 1.98 to 15.9 µM)	< 1 µg/mL	> 32 µg/mL
O=C(NCC(Cc1ccc(C#Cc2ccc(CN3CCOCC3)cc2)cc1)c1nc[nH]c(=O)c1O)C(F)F (stereo not shown) [Compound 15, 2,2-difluoro-N-(2-(5-hydroxy-6-oxo-1,6-dihydropyrimidin-4-yl)-3-(4-((4-(morpholinomethyl)phenyl)ethynyl)phenyl)propyl)acetamide]	1 to 8 µg/mL (≈ 1.91 to 15.3 µM)	< 1 µg/mL	> 32 µg/mL	7.30 to 8.00	50 to 80%	50 to 80%	< 20%	–	–	–
O=C1CCCN1Cc1ccc(C#Cc2ccc(CC(CNCCF)c3nc[nH]c(=O)c3O)cc2)cc1 (stereo not shown) [Compound 55, 6-(1-((2-fluoroethyl)amino)-3-(4-((4-((2-oxopyrrolidin-1-yl)methyl)phenyl)ethynyl)phenyl)propan-2-yl)-5-hydroxypyrimidin-4(3H)-one]	–	–	–	7.30 to 8.00	> 80%	20 to 50%	20 to 50%	–	–	–
O=c1[nH]cnc(C(CNCC(F)F)Cc2ccc(C#Cc3ccc(CN4CCOCC4)cc3)cc2)c1O (stereo not shown) [Compound 57, 6-(1-((2,2-difluoroethyl)amino)-3-(4-((4-(morpholinomethyl)phenyl)ethynyl)phenyl)propan-2-yl)-5-hydroxypyrimidin-4(3H)-one]	–	–	–	6.00 to 7.00	> 80%	50 to 80%	20 to 50%	–	–	–
CO[C@@H]1CCN(Cc2ccc(C#Cc3ccc(CC(C(=O)NCC(F)F)c4nc[nH]c(=O)c4O)cc3)cc2)C1 (stereo partly drawn) [Compound 106, N-(2,2-difluoroethyl)-2-(5-hydroxy-6-oxo-1,6-dihydropyrimidin-4-yl)-3-(4-((4-(((R)-3-methoxypyrrolidin-1-yl)methyl)phenyl)ethynyl)phenyl) propanamide]	–	–	–	6.00 to 7.00	50 to 80%	50 to 80%	20 to 50%	–	–	–
COCCNC(=O)C(Cc1ccc(C#Cc2ccc(CN3CCOCC3)cc2)cc1)c1nc[nH]c(=O)c1O (stereo not shown) [Compound 153, 2-(5-hydroxy-6-oxo-1,6-dihydropyrimidin-4-yl)-N-(2-methoxyethyl)-3-(4-((4-(morpholinomethyl)phenyl)ethynyl)phenyl) propanamide]	–	–	–	7.30 to 8.00	> 80%	50 to 80%	< 20%	–	–	–
O=c1[nH]cnc(C(CNCCF)Cc2ccc(C#Cc3ccc(CO)cc3)cc2)c1O (stereo not shown) [Compound 195, 6-(1-((2-fluoroethyl)amino)-3-(4-((4-(hydroxymethyl)phenyl)ethynyl)phenyl)propan-2-yl)-5-hydroxypyrimidin-4(3H)-one]	–	–	–	6.00 to 7.00	50 to 80%	< 20%	< 20%	–	–	–
N#CC1CN(Cc2ccc(C#Cc3ccc(CC(CNCCF)c4nc[nH]c(=O)c4O)cc3)cc2)C1 (stereo not shown) [Compound 209, 1-(4-((4-(3-((2-fluoroethyl)amino)-2-(5-hydroxy-6-oxo-1,6-dihydropyrimidin-4-yl)propyl)phenyl)ethynyl)benzyl) azetidine-3-carbonitrile]	–	–	–	7.30 to 8.00	–	–	–	–	–	–
O=c1[nH]cnc(C(CNCCF)Cc2ccc(C#Cc3ccc(CN4CC5CCC(C4)O5)cc3)cc2)c1O (stereo not shown) [Compound 215, 6-(1-(4-((4-((8-oxa-3-azabicyclo[3.2.1]octan-3-yl)methyl)phenyl)ethynyl)phenyl)-3-((2-fluoroethyl)amino)propan-2-yl)-5-hydroxypyrimidin-4(3H)-one]	–	–	–	6.00 to 7.00	20 to 50%	20 to 50%	< 20%	–	–	–
C[C@@H]1CN(Cc2ccc(C#Cc3ccc(CC(CNCCF)c4nc[nH]c(=O)c4O)cc3)cc2)C[C@@H](C)O1 (stereo partly drawn) [Compound 218, 6-(1-(4-((4-(((2R,6R)-2,6-dimethylmorpholino)methyl)phenyl)ethynyl)phenyl)-3-((2-fluoroethyl)amino)propan-2-yl)-5-hydroxypyrimidin-4(3H)-one]	–	–	–	6.00 to 7.00	–	–	–	–	–	–
O=c1[nH]cnc(CCc2ccc(C#Cc3ccc(CNC4CC(O)C4)cc3)cc2)c1O (stereo not shown) [Compound 243, 5-hydroxy-6-(4-((4-(((3-hydroxycyclobutyl)amino)methyl)phenyl)ethynyl)phenethyl)pyrimidin-4(3H)-one]	–	–	–	7.30 to 8.00	–	–	–	–	–	–
O=c1[nH]cnc(CCc2ccc(C#Cc3ccc(CNC4CCOCC4)cc3)cc2)c1O [Compound 244, 5-hydroxy-6-(4-((4-(((tetrahydro-2H-pyran-4-yl)amino)methyl)phenyl)ethynyl)phenethyl)pyrimidin-4(3H)-one]	< 1 µg/mL	< 1 µg/mL	> 32 µg/mL	6.00 to 7.00	–	–	–	–	–	–
O=c1[nH]cnc(CCc2ccc(C#Cc3cccc(Cl)c3)cc2)c1O [Compound 248, 6-(4-((3-chlorophenyl)ethynyl)phenethyl)-5-hydroxypyrimidin-4(3H)-one]	> 32 µg/mL	> 32 µg/mL	–	6.00 to 7.00	–	–	–	–	–	–
O=c1[nH]cnc(C(CNCc2cccnc2)Cc2ccc(C#Cc3ccc(CN4CCOCC4)cc3)cc2)c1O (stereo not shown) [Compound 250, 5-hydroxy-6-(1-(4-((4-(morpholinomethyl)phenyl)ethynyl)phenyl)-3-((pyridin-3-ylmethyl)amino)propan-2-yl)pyrimidin-4(3H)-one]	> 32 µg/mL	< 1 µg/mL	–	> 8.00	–	–	–	–	–	–
N-(2,2-difluoroethyl)- 2-(5-hydroxy-6-oxo- 1,6-dihydropyrimidin- 4-yl)-3-(4-((4- (hydroxymethyl) phenyl)ethynyl)phenyl) propanamide [Compound 108]	–	–	–	7.30 to 8.00	–	–	–	–	–	–

— US20200095236A1, “ANTIBACTERIAL COMPOUNDS” (FORGE THERAPEUTICS, INC., priority 2017, published 2020)
